Test results taken from paper PMC7151078, “A Novel NMDA Receptor Antagonist Protects against Cognitive Decline Presented by Senescent Mice” (Pharmaceutics, 2020).

Legend:
SAMR1 and SAMP8 mice [1] = assay: Object location test (OLT); format: in vivo, mouse; conditions: both treated mice groups (SR1 and SP8), 5 mg/kg/day
Procedure: Male SAMR1 and SAMP8 mice (n = 41) with 20-weeks-old were used to carry out cognitive and molecular analysis. The animals were randomly divided into four groups: SAMR1 control (SR1 Ct) group (n = 11), SAMP8 control (SP8 Ct) group (n = 8), SAMR1 treated with RL-208 (SR1 RL-208 (5 mg/Kg)) group (n = 10) and SAMP8 treated with RL-208 (SP8 RL-208 (5 mg/Kg)) group (n = 12). Animals had free access to food and water, under standard temperature conditions (22±2 °C) and 12h:12h light-dark cycles (300 lux/0 lux). RL-208, (3,4,8,9-tetramethyltetracyclo[4.4.0.0^3,9.0^4,8]dec-1-yl)-methylamine hydrochloride, (5 mg/kg/day) was administered through drinking water for four weeks before starting the cognitive test. RL-208 was administered up to euthanasia (Figure 1A). Water consumption was controlled each week for each cage and strain. Afterwards, RL-208 concentration was adjusted accordingly to reach the optimal dose for each cage. […] Trials were recorded using a camera mounted above the open field area, and the total exploration time was determined by scoring the amount of time (seconds) spent sniffing the object in the new location (TN) and the object in the old location (TO). In order to evaluate the cognitive performance, the DI was calculated, which is defined as (TN-TO)/(TN+TO).

CYP2D6 = biological target: T1, CYP2D6 (Homo sapiens, UniProt P10635); assay: Cytochrome inhibition, fluorescent detection (AMMC substrate); format: in vitro ADME; conditions: recombinant human CYP2D6
T1 construct: host or cells: insect cell microsomes
T1 sequence (P10635 whole entry): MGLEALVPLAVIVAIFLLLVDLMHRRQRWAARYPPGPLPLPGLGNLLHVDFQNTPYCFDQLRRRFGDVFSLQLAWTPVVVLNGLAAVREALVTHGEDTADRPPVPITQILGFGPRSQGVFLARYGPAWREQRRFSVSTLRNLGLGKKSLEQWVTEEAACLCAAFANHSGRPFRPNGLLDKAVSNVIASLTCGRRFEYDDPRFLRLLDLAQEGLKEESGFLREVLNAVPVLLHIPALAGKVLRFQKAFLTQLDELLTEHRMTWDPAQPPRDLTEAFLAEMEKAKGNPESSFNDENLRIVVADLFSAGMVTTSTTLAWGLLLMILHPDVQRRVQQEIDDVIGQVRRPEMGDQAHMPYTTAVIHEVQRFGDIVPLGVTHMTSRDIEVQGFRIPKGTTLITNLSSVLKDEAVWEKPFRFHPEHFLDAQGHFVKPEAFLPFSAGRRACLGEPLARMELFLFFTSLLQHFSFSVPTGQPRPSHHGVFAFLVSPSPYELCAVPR
Procedure: To screen the inhibition potential of the compounds, recombinant human cytochrome P450 enzymes (CYP1A2, CYP2C9, CYP2C19, CYP2D6, and CYP3A4) and probe substrates were used with the fluorescent detection method. Incubations were conducted in 200-µL volume 96 well microtiter plates (COSTAR 3915). Addition of cofactor-buffer mixture (KH2PO4 buffer, 1.3 mM NADP+, 3.3 mM MgCl2, 3.3 mM Glucose-6-phosphate and 0.4 U/mL Glucose-6-phosphate Dehydrogenase), supersomes control, standard inhibitors (Furafyline, Tranylzypromine, Ketoconazole, Sulfaphenazole, and Quinidine; from Sigma Aldrich), and test compounds to plates were carried out using a a liquid handling station (Zephyr Caliper). The plate was then pre-incubated at 37 °C for 5 min, and the reaction initiated by the addition of pre-warmed enzyme/substrate (E/S) mix. […] Fluorescence per well was measured using a fluorescence plate reader (Tecan M1000 pro), and the percentage of inhibition was calculated.

SAMR1 and SAMP8 mice [2] = assay: Hippocampal protein levels by Western blotting; format: in vivo, mouse; conditions: hippocampus
Procedure: Male SAMR1 and SAMP8 mice (n = 41) with 20-weeks-old were used to carry out cognitive and molecular analysis. The animals were randomly divided into four groups: SAMR1 control (SR1 Ct) group (n = 11), SAMP8 control (SP8 Ct) group (n = 8), SAMR1 treated with RL-208 (SR1 RL-208 (5 mg/Kg)) group (n = 10) and SAMP8 treated with RL-208 (SP8 RL-208 (5 mg/Kg)) group (n = 12). Animals had free access to food and water, under standard temperature conditions (22±2 °C) and 12h:12h light-dark cycles (300 lux/0 lux). RL-208, (3,4,8,9-tetramethyltetracyclo[4.4.0.0^3,9.0^4,8]dec-1-yl)-methylamine hydrochloride, (5 mg/kg/day) was administered through drinking water for four weeks before starting the cognitive test. RL-208 was administered up to euthanasia (Figure 1A). Water consumption was controlled each week for each cage and strain. Afterwards, RL-208 concentration was adjusted accordingly to reach the optimal dose for each cage. Three days after the behavioural and cognitive tests, mice were euthanized by cervical dislocation. Brains were immediately removed from the skull. The hippocampus and cortex were then isolated and frozen in powdered dry ice. They were maintained at −80 °C for further use. Tissue samples were homogenized in lysis buffer containing phosphatase and protease inhibitors (Cocktail II, Sigma). Total protein levels were obtained, and protein concentration was determined by the method of Bradford. For Western blotting (WB), aliquots of 15 μg of hippocampal protein extraction per sample were used. Protein samples were separated by Sodium dodecyl sulphate-Polyacrylamide gel electrophoresis (SDS-PAGE) (8–20%) and transferred onto Polyvinylidene difluoride (PVDF) membranes (Millipore). Afterwards, membranes were blocked in 5% non-fat milk in Tris-buffered saline (TBS) solution containing 0.1% Tween 20 TBS (TBS-T) for 1 hour at room temperature, followed by overnight incubation at a 4 °C with the primary antibodies listed in Table S1. Then, membranes were washed and incubated with secondary antibodies for 1 hour at room temperature. Immunoreactive proteins were viewed with the chemiluminescence-based detection kit, following the manufacturer’s protocol (ECL Kit, Millipore), and digital images were acquired using ChemiDoc XRS+ System (BioRad). Semi-quantitative analyses were performed using ImageLab software (BioRad), and results were expressed in arbitrary units (AU), considering control protein levels as 100%. Protein loading was routinely monitored by immunodetection of Glyceraldehyde-3-phosphate dehydrogenase (GAPDH).

- CYP2D6 inhibition (CYP2D6): 10 ± 3%
Structure (SMILES): CC12CC3CC1(C)C1(C)CC3(CN)CC21C.Cl [RL-208, (3,4,8,9-tetramethyltetracyclo [4.4.0.0^3,9.0^4,8]dec-1-yl)methylamine hydrochloride]
- OLT spatial memory (DI) (SAMR1 and SAMP8 mice [1]): significant higher DI values
- PSD95 protein levels (SAMR1 and SAMP8 mice [2]; RL-208 treated mice): augmented but did not reach significance in SP8 mice
- Synaptophysin (SYN) protein levels (SAMR1 and SAMP8 mice [2]; RL-208 treated mice): significant increase
- ADAM10 protein levels (SAMR1 and SAMP8 mice [2]; SAMP8): prevented the loss
- SNAP25 protein levels (SAMR1 and SAMP8 mice [2]; SP8 RL-208): significant-high
- CDK5 activation (p-CDK5/CDK5 ratio) (SAMR1 and SAMP8 mice [2]; SP8 RL-208 vs control group): significantly reduced
- p25/p35 ratio (SAMR1 and SAMP8 mice [2]; SP8 RL-208 vs control group): significantly reduced
- GPX1 protein levels (SAMR1 and SAMP8 mice [2]; SP8 mice, not in SR1): increased, in a significant way
- SOD1 protein levels (SAMR1 and SAMP8 mice [2]; SP8 mice, not in SR1): increased, in a significant way
- 120BPD (Spectrin breakdown product) (SAMR1 and SAMP8 mice [2]; SP8 strain, not in SR1): reduced
- Calpain-1 protein levels (SAMR1 and SAMP8 mice [2]; SP8 strain, not in SR1): reduced
- Caspase-3 protein levels (SAMR1 and SAMP8 mice [2]; SP8 strain, not in SR1): reduced
- TrkB-FL protein levels (SAMR1 and SAMP8 mice [2]; both SR1 and SP8): increased significantly
- p-NMDAR (Tyr1472) protein levels (SAMR1 and SAMP8 mice [2]; both strains): increased in a significant way
- Tau phosphorylation (Ser396) (SAMR1 and SAMP8 mice [2]; both treated mice groups): significant reduction
- NMDAR2A protein levels (SAMR1 and SAMP8 mice [2]; neither in SR1 nor in SP8): did not produce significant differences
- TrkB-ICD protein levels (SAMR1 and SAMP8 mice [2]; treated mice): reduced
